According to ChEMBL document CHEMBL3137667, “[Drug-induced liver injury; fourteenth updated edition of the bibliographic database of liver injuries and related drugs]” (Gastroenterol Clin Biol, 2004):

Key:
[1] = human, serum
[2] = human, serum; remark: listed apart in the source
[3] = Highest frequency of moderate liver toxicity observed during clinical trials, expressed as a percentage. [column '% BIOL' in source]; settings: human
[4] = human, serum, 4383 h
[5] = human
[6] = human; remark: listed apart in the source
[7] = human; remark: listed apart in the source
[8] = human; remark: listed apart in the source
[9] = Highest frequency of acute liver toxicity observed during clinical trials, expressed as a percentage. [column '% AIGUE' in source]; settings: human
[10] = human; remark: listed apart in the source
[11] = human; remark: listed apart in the source
[12] = human; remark: listed apart in the source
[13] = human; remark: listed apart in the source
[14] = human; remark: listed apart in the source
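Wherever Hepatotoxicity (association with vascular disease) is given: count of indexed literature references reporting vascular liver injury in humans, e.g. peliosis hepatitis, hepatic veno-occlusive disease or Budd-Chiari syndrome.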
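Wherever Hepatotoxicity (benign tumour) is given: value is a count of indexed literature references citing a benign tumour confirmed by histopathology.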
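Wherever Hepatotoxicity (choleostasis) is given: human cholestatic liver injury, shown by histopathology or by peak ALT or AST elevation over alkaline phosphatase ratio below 2, value counts indexed literature reports.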
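Wherever Hepatotoxicity (chronic liver disease) is given: chronic liver injury confirmed by histopathology or persistently raised serum aminotransferase activity beyond 6 months, value given as the count of indexed literature references.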
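Wherever Hepatotoxicity (cirrhosis) is given: value is a count of indexed literature references reporting cirrhosis confirmed by histopathology.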
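Wherever Hepatotoxicity (cytolytic) is given: human cytolytic liver injury, shown by histopathology or by a ratio above 5 of peak ALT or AST elevation to alkaline phosphatase elevation, value counts indexed references.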
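Wherever Hepatotoxicity (granulomatous hepatitis) is given: value is a count of indexed literature references reporting granulomatous liver disease confirmed by histopathology.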
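Wherever Hepatotoxicity (malignant tumour) is given: malignant tumour confirmed by histopathology, value gives the count of indexed literature references reporting it.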
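Wherever Hepatotoxicity (severe hepatitis) is given: human clinical data: severe hepatitis, meaning potentially life-threatening liver failure or clinically observed cases, the value counts how many indexed literature references report it.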
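Wherever Hepatotoxicity (steatosis) is given: steatosis confirmed by histopathology, value is the count of indexed references.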

Row | Structure (SMILES) | Hepatotoxicity (acute) [1] | Hepatotoxicity (moderate) [2] | Hepatotoxicity (moderate) [3] [%] | Hepatotoxicity (chronic liver disease) [4] | Hepatotoxicity (severe hepatitis) [5] | Hepatotoxicity (choleostasis) [6] | Hepatotoxicity (cirrhosis) [7] | Hepatotoxicity (steatosis) [8] | Hepatotoxicity (acute) [9] [%] | Hepatotoxicity (granulomatous hepatitis) [10] | Hepatotoxicity (malignant tumour) [11] | Hepatotoxicity (cytolytic) [12] | Hepatotoxicity (benign tumour) [13] | Hepatotoxicity (association with vascular disease) [14] | Hepatotoxicity (moderate) ([3]; Liver) [%] | Hepatotoxicity (severe hepatitis) ([5]; Liver) | Hepatotoxicity (acute) ([9]; Liver) [%]
1 | CC(=O)N[C@@H]1[C@H](Oc2c3cc4cc2Oc2ccc(cc2Cl)[C@@H](O[C@@H]2O[C@@H](CO)[C@@H](O)[C@H](O)[C@@H]2NC(C)=O)[C@@H]2NC(=O)[C@H](NC(=O)[C@@H]4NC(=O)[C@H]4NC(=O)[C@@H](Cc5ccc(c(Cl)c5)O3)NC(=O)[C@H](N)c3ccc(O)c(c3)Oc3cc(O)cc4c3)c3ccc(O)c(c3)-c3c(O[C@H]4O[C@H](CO)[C@@H](O)[C@@H](O)[C@@H]4O)cc(O)cc3[C@@H](C(=O)O)NC2=O)O[C@@H](CO)[C@@H](O)[C@@H]1O | 4 | 36 | 26.9 | 0 | 0 | 1 | 0 | 0 | 0.9 | 0 | 0 | 1 | 0 | 0 |  |  | 
2 | CC(CN1c2ccccc2Sc2ccccc21)N(C)C (centres undefined) [PROMETHAZINE] | 2 | 0 | 0 | 0 | 0 | 0 | 0 | 0 | 0 | 0 | 0 | 0 | 0 | 0 |  |  | 
3 | CC(C)Nc1cccnc1N1CCN(C(=O)c2cc3cc(NS(C)(=O)=O)ccc3[nH]2)CC1 [DELAVIRDINE] | 0 | 2 | 7.1 | 0 | 0 | 0 | 0 | 0 | 0 | 0 | 0 | 0 | 0 | 0 |  |  | 
4 | COc1ccc(C(=O)N2CCN(c3ccc4c(c3)CCC(=O)N4)CC2)cc1OC [VESNARINONE] | 0 | 1 | 0.4 | 0 | 0 | 0 | 0 | 0 | 0 | 0 | 0 | 0 | 0 | 0 |  |  | 
5 | C[C@H]1C[C@H]2[C@@H]3CCC4=CC(=O)C=C[C@]4(C)[C@@]3(Cl)[C@@H](O)C[C@]2(C)[C@@]1(O)C(=O)CO [BECLOMETHASONE] | 0 | 1 | 11.6 | 0 | 0 | 0 | 0 | 0 | 0 | 0 | 0 | 0 | 0 | 0 |  |  | 
6 | CCOC(=O)C1=C(C)NC(C)=C(C(=O)OC)C1c1cccc(Cl)c1Cl (centres undefined) [FELODIPINE] | 0 | 3 |  | 0 |  | 0 | 0 | 0 |  | 0 | 0 | 0 | 0 | 0 | 20 | 0 | 0
7 | CC(C)(C)C(=O)OCOC(=O)[C@@H]1N2C(=O)[C@@H](/N=C/N3CCCCCC3)[C@H]2SC1(C)C [AMDINOCILLIN PIVOXIL] | 0 | 1 | 17.2 | 0 | 0 | 0 | 0 | 0 | 0 | 0 | 0 | 0 | 0 | 0 |  |  | 
8 | CO[C@H]1O[C@@H]2O[C@@]3(C)CC[C@H]4[C@H](C)CC[C@@H]([C@H]1C)[C@@]24OO3 | 0 | 1 | 17 | 0 | 0 | 0 | 0 | 0 | 0 | 0 | 0 | 0 | 0 | 0 |  |  | 
9 | CCN(CC)CC(=O)Oc1ccc(NC(C)=O)cc1 [PROPACETAMOL] | 0 | 1 | 2.1 | 0 | 0 | 0 | 0 | 0 | 0 | 0 | 0 | 0 | 0 | 0 |  |  | 
10 | CSc1ccc(C(=O)c2[nH]c(=O)[nH]c2C)cc1 [ENOXIMONE] | 0 | 3 | 6 | 0 | 0 | 0 | 0 | 0 | 0 | 0 | 0 | 0 | 0 | 0 |  |  | 
11 | C[C@H](C(=O)O)c1ccc2oc(-c3ccc(F)cc3)nc2c1 [FLUNOXAPROFEN] | 0 | 2 | 0 | 0 | 0 | 0 | 0 | 0 | 0 | 0 | 0 | 0 | 0 | 0 |  |  | 
